Reference: patent US5750496A, “Method of controlling cryptosporidium infectons using protease inhibitors” (priority 1996, dated 1998)
Starred links: 1 amine or outer side, 2 acyl side, 3 side chain; linkers in the order of their positions; H or OH if unused. Residues, ends and D or L forms follow the SMILES beside them. *: point of attachment. MeOSuc = COC(=O)CCC(=O)*; CO = O=C([*:1])[*:2]; CH2Cl = ClC*

B1: soybean trypsin inhibitor (protein, UniProt P01070 25-205, looked up)
Trypsin inhibitor A: DFVLDNEGNPLENGGTYYILSDITAFGGIRAAPTGNERCPLTVVQSRNELDKGIGTIISSPYRIRFIAEGHPLSLKFDSFAVIMLCVGIPTEWSVVEDLPEGPAVKIGENKDAMDGWFRLERVSDDEFNNYKLVFCPQQAEDDKCGDIGISIDHDDGTRRLVVSKNKPLVVQFQKLDKESL

Tests used:
[1] = system: C. parvum; experiment: Anticryptosporidial effect in BFTE cell culture inoculated with C. parvum oocysts, parasites enumerated 24 hours post-inoculation; format: cell-based, Cryptosporidium parvum (bovine isolate); details: for Control Percent Survival: 24 hours post-inoculation; for Lowest concentrations with significant reduction (P<0.001) in parasite numbers: concentrations as low as, P<0.001 vs infection control; for Intact (i.e. unexcysted) oocysts in treated BFTE cell monolayers during microscopic enumeration: predominantly associated with concentrations exceeding 100 μg/ml
Description: C. parvum (bovine isolate) oocysts used in this study were originally donated by the U.S. Department of Agriculture, Ames, Iowa. The oocysts were isolated from calf manure, preserved in 2.5% potassium dichromate, and used within 3 months of purification. Oocysts were decontaminated by suspension in 20% (vol/vol) 1.05% sodium hypochlorite on ice for 20 minutes. Oocysts were then washed three times in Hanks' balanced salt solution ("HIBSS") and once in RPMI 1640 (available from Sigma, St. Louis, Mo.). Release of sporozoites was achieved by incubating oocysts in an excystation solution consisting of 0.25% (wt/vol) trypsin (available from Sigma, St. Louis, Mo.) and 0.75% (wt/vol) taurodeoxycholic acid (available from Sigma) in HBSS. The resulting suspension was incubated at 37° C. for 45 minutes and microscopically observed to confirm sporozoite release. Sporozoites were completely separated from intact oocysts and oocyst walls by passage through sterile polycarbonate filters (3 micron pore size, available from Millipore Corp., Bedford, Mass.) twice prior to inoculation of bovine fallopian tube epithelial ("BFTE") cell monolayers.
Primary BFTE cell cultures were prepared from bovine fallopian tubes (FT). Fat was trimmed from the serosal surfaces, mucus was gently squeezed from the lumens, and FT were decontaminated by being submerged in 70% ethanol for 30 seconds. The FT were then transferred to sterile culture petri dishes containing HBSS and washed twice. The BFTE cells were harvested either by flushing the FT with HBSS, using a 10 ml syringe equipped with a mouse feeding needle, or by opening the FT lengthwise with scissors and scraping the mucosal surfaces. The BFTE cells were subsequently washed in HBSS by centrifugation at 200×g (force of gravity) for 10 minutes, planted in 75-cm^2 flasks containing RPMI 1640 and cultured in a 5% CO2 incubator at 37° C. for 72 to 120 hours. When the cell lines reached confluency, they were trypsinized, split, and planted onto cover slips positioned on the bottoms of individual wells in 24-well tissue culture plates. When cells reached 80% confluency, they were inoculated with either 10^5 oocysts or 4×10^5 sporozoites per well. Plates were then maintained at 37° C. in a candle jar environment (17% O2, 3% CO2, 80% N2). Growth medium was changed in each well every 72 hours. In wells inoculated with oocysts, the medium was first changed at 24 hours to remove any unexcysted oocysts.
Coverslips were removed at 5, 24, 48, 72, 96, and 120 hours from the inoculated wells containing monolayers of BFTE cells. The coverslips were washed in RPMI 1640, fixed in 100% methanol for 10 minutes, stained with Giemsa stain for 1 hour, and washed three times with double-distilled water (ddH2 O). Coverslips were then mounted on glass slides and examined under oil immersion (1000X), using bright-field microscopy. Parasites were enumerated by counting all developmental stages of C. parvum present in a single scan (67 fields) through the center of each coverslip. The data were statistically compared for significance, using analysis of variance (Fischer's protected least-significant-difference test using a "[…]" statistical analysis application developed by Abacus Concepts, Inc., Berkeley, Calif.).
The anticryptosporidial potential of the protease inhibitor AAT was evaluated in a BFTE cell culture system inoculated with C. parvum oocysts in accordance with the methods detailed in Example I. […] At 24 hours post-inoculation, the BFTE cells were rinsed with RPMI medium, fixed in methanol, and stained with Giemsa. Parasites were enumerated in cell monolayers by brightfield microscopy. Results, as set out in Table 1, represent the mean number of parasites counted per treatment group expressed as a percent, plus or minus the standard deviation, of the mean number of parasites counted in the infection control group.

[2] = system: BFTE cells; experiment: Cytotoxicity for BFTE cells at the concentrations evaluated; format: cell-based, bovine; details: at the concentrations evaluated (5-1000 μg/ml)
Description: Primary BFTE cell cultures were prepared from bovine fallopian tubes (FT). Fat was trimmed from the serosal surfaces, mucus was gently squeezed from the lumens, and FT were decontaminated by being submerged in 70% ethanol for 30 seconds. The FT were then transferred to sterile culture petri dishes containing HBSS and washed twice. The BFTE cells were harvested either by flushing the FT with HBSS, using a 10 ml syringe equipped with a mouse feeding needle, or by opening the FT lengthwise with scissors and scraping the mucosal surfaces. The BFTE cells were subsequently washed in HBSS by centrifugation at 200×g (force of gravity) for 10 minutes, planted in 75-cm^2 flasks containing RPMI 1640 and cultured in a 5% CO2 incubator at 37° C. for 72 to 120 hours. […]
The anticryptosporidial potential of the protease inhibitor AAT was evaluated in a BFTE cell culture system inoculated with C. parvum oocysts in accordance with the methods detailed in Example I. AAT concentrations of 5, 10, 50 100, and 500 micrograms per milliliter ("μg/ml") in RPMI medium were mixed with C. parvum oocysts and used to inoculate BFTE cell monolayers. […] Results, as set out in Table 1, represent the mean number of parasites counted per treatment group expressed as a percent, plus or minus the standard deviation, of the mean number of parasites counted in the infection control group.

[3] = 5 μg/ml, mean parasites as percent of infection control +/- SD
[4] = 10 μg/ml, mean parasites as percent of infection control +/- SD
[5] = 50 μg/ml, mean parasites as percent of infection control +/- SD
[6] = 100 μg/ml, mean parasites as percent of infection control +/- SD
[7] = 500 μg/ml, mean parasites as percent of infection control +/- SD
[8] = 1000 μg/ml, mean parasites as percent of infection control +/- SD

Row | Molecule | Control Percent Survival [1, 3] | Control Percent Survival [1, 4] | Control Percent Survival [1, 5] | Control Percent Survival [1, 6] | Control Percent Survival [1, 7] | Control Percent Survival [1, 8] | Lowest concentrations with significant reduction (P<0.001) in parasite numbers [1] [µg/mL] | Intact (i.e. unexcysted) oocysts in treated BFTE cell monolayers during microscopic enumeration [1] | Number of parasites vs infection control (P<0.01) ([1]; 10 μg/ml and 50 μg/ml) | Number of parasites vs infection control (P<0.01) ([1]; 500 μg/ml) | Control Percent Survival ([1]; 1 mM, percent of infection control +/- SD) | Control Percent Survival ([1]; 2 mM, percent of infection control +/- SD) | Control Percent Survival ([1]; 3 mM, percent of infection control +/- SD) | Number of parasites vs infection control (P<0.001) ([1]; 3 mM, P<0.001) | Cytotoxicity for BFTE cells [2] | Number of parasites vs infection control (P<0.01) ([1]; 50 μg/ml and 100 μg/ml)
1 | CC(C)[C@H](NC(=O)[C@H](CCCNC(=N)N)NC(=O)N[C@@H](Cc1ccccc1)C(=O)O)C(=O)N[C@H](C=O)CCCNC(=N)N [ANTIPAIN, antipain] ({Phe-CO}-Arg-Val-Arg-aldehyde) | 67.7 +/- 7.2% | 53.1 +/- 5.8% | 42.1 +/- 6.1% | 20.9 +/- 2.2% | 15.6 +/- 1.4% | 6.6 +/- 1.4% | 5 to 10 | frequently observed | – | – | – | – | – | – | – | –
2 | CC(=O)N[C@@H](CC(C)C)C(=O)N[C@@H](CC(C)C)C(=O)N[C@H](C=O)CCCNC(=N)N [Leupeptin, leupeptin] | 89.1 +/- 5.4% | 64.8 +/- 12.0% | 58.7 +/- 11.2% | 51.9 +/- 4.6% | 43.4 +/- 6.6% | – | – | – | significantly reduced | – | – | – | – | – | – | –
3 | COC(=O)CCC(=O)N[C@@H](C)C(=O)N[C@@H](C)C(=O)N1CCC[C@H]1C(=O)N[C@H](C(=O)CCl)C(C)C [MAAPVCK, methoxysuccinyl-ala-ala-pro-valine chloromethylketone] (MeOSuc-AAPV-CH2Cl) | 89.1 +/- 5.4% | 64.8 +/- 12.0% | 58.7 +/- 11.2% | 51.9 +/- 4.6% | 43.4 +/- 6.6% | – | – | – | – | significantly reduced | – | – | – | – | – | –
4 | O=S(=O)(F)Cc1ccccc1 [PMSF, phenylmethylsulfonyl flouride] | – | – | – | – | – | – | – | – | – | – | 68.9 +/- 5.2% | 55.9 +/- 4.7% | 40.0 +/- 8.3% | significantly reduced | – | –
5 | alpha-1-antitrypsin [AAT] | 49.1 +/- 3.8% | 43.9 +/- 4.2% | 42.7 +/- 1.6% | 30.4 +/- 1.9% | 14.7 +/- 6.3% | 1.8 +/- 0.4% | 5 to 10 | frequently observed | – | – | – | – | – | – | no evidence of cytotoxicity | –
6 | aprotinin | 83.9 +/- 6.6% | 54.2 +/- 6.0% | 36.1 +/- 4.7% | 16.8 +/- 5.1% | 10.9 +/- 4.7% | 9.4 +/- 1.8% | 5 to 10 | frequently observed | – | – | – | – | – | – | – | –
7 | B1 | 89.1 +/- 5.4% | 64.8 +/- 12.0% | 58.7 +/- 11.2% | 51.9 +/- 4.6% | 43.4 +/- 6.6% | – | – | – | – | – | – | – | – | – | – | significantly reduced
